Source: patent publication EP0309789A1, “4-Oxo-3-quinolinecarboxylic acids useful as antibacterial agents and preparation thereof” (STERLING WINTHROP INC., priority 1987, dated 1989)
Values after ≈ are worked out from the molar mass of the structure shown. Read-outs that look alike come from different tables or passages of the source.

Key:
Staph. aureus = test: In vivo antibacterial activity in infected mice (protective dose); settings: for Staph. aureus (PD₅₀) po / Staph. aureus (PD₅₀) sc: Mouse, one-half hour postinfection, deaths recorded for seven days; for Staph. aureus (PD₅₀) sc: subcutaneous; for activity relative to the prior art compounds: Staph. aureus, in vivo mouse, from Table II
Description: (§1) The in vivo antibacterial activity of the compounds of the invention was determined in female mice, 18-20 grams each. Aqueous solutions of the compounds to be tested were prepared by dissolving the free acid form in dilute sodium hydroxide and diluting the solution with distilled water to the desired concentration. Cultures of E. coli were grown in brain heart infusion broth, and the mice were inoculated intraperitoneally with 0.5 ml of the bacterial test inoculum suspended in saline. Cultures of Staph. aureus were thawed from frozen pooled stocks and mixed with 5% mucin. A 0.5 ml preparation was used to infect mice by i.p. inoculation. The mice were medicated subcutaneously (sc) or orally (po) with 0.5 ml of the test compound solution one-half hour postinfection. Deaths were recorded daily for seven days. Fifty percent protective dose values (PD₅₀) were calculated using probit analysis.

E. coli = test: as above; settings: Mouse, one-half hour postinfection, deaths recorded for seven days; for E. coli (PD₅₀) sc: subcutaneous
Description: as §1

Bacteroides fragilis = test: In vitro antimicrobial activity, microplate dilution procedure (MIC), anaerobic; type: cell-based
Description: (§2) The in vitro antimicrobial activity of the compounds of the invention was determined by a microplate dilution procedure. […] Resulting suspensions were diluted 1/10 in the appropriate broth or used undiluted for the inoculum. […] The compounds were then serially diluted two-fold in DMSO to give a working stock concentration range plate. The last row of wells was left compound-free receiving only DMSO to serve as a growth control. Five mcl from each well of the working stock plate was transferred to corresponding wells of a separate plate containing 95 mcl/well of the appropriate broth. All dilutions were made with either an automated dilutor or manually. […] Plates were incubated as described above and read for visible growth. The minimal inhibitory concentration (MIC: expressed in mcg/ml) of each compound tested against each test microorganism was determined as the lowest concentration of compound which prevents visible microbial growth.

Escherichia coli = test: In vitro antimicrobial activity, microplate dilution procedure (MIC); type: cell-based
Description: as §2

Streptococcus pneumoniae = test: as above; type: cell-based
Description: as §2

Pseudomonas aeruginosa = test: as above; type: cell-based; settings: read-out: PA MIC
Description: as §2

Micrococcus luteus = test: as above; type: cell-based
Description: as §2

Staphylococcus aureus = test: as above; type: cell-based; settings: for activity relative to compound R / activity relative to compounds P and Q: from Table I; for MIC: Staphylococcus aureus
Description: as §2

Streptococcus faecalis = test: as above; type: cell-based; settings: Enterococcus faecalis
Description: as §2

[1] = Serum levels in monkeys after oral dosing; type: in vivo; settings: 25 mg/kg oral dosing; for half-life: monkey
Description: In monkeys, compounds A and C gave high and prolonged serum levels after 25 mg/kg oral dosing.

[2] = Streptococcus faecalis, read-out: SF MIC
[3] = Strep. pneumoniae, read-out: MIC

MIC (Bacteroides fragilis; anaerobic, read-out: BF MIC) [µg/mL]	MIC (Escherichia coli; read-out: EC MIC) [µg/mL]	MIC (Streptococcus pneumoniae; read-out: SP MIC) [µg/mL]	MIC (Pseudomonas aeruginosa) [µg/mL]	MIC (Micrococcus luteus; read-out: ML MIC) [µg/mL]	MIC (Staphylococcus aureus; read-out: SA MIC) [µg/mL]	MIC (Streptococcus faecalis; [2]) [µg/mL]	SMILES	Staph. aureus (PD₅₀) po (Staph. aureus) [mg/kg]	Staph. aureus (PD₅₀) sc (Staph. aureus) [mg/kg]	activity relative to the prior art compounds (Staph. aureus)	E. coli (PD₅₀) po (E. coli) [mg/kg]	E. coli (PD₅₀) sc (E. coli) [mg/kg]	activity relative to compound R (Staphylococcus aureus; Staph. aureus)	activity relative to compounds P and Q (Staphylococcus aureus; Staph. aureus)	other results
0.5 (≈ 1.29 µM)	0.125 (≈ 0.322 µM)	0.03 (≈ 0.0773 µM)	8 (≈ 20.6 µM)	0.5 (≈ 1.29 µM)	0.008 (≈ 0.0206 µM)	0.06 (≈ 0.155 µM)	Cc1cc(-c2c(F)c(F)c3c(=O)c(C(=O)O)cn(C4CC4)c3c2F)cc(C)n1 [B, 1-Cyclopropyl-7-(2,6-dimethyl-4-pyridinyl)-5,6,8-trifluoro-1,4-dihydro-4-oxo-3-quinolinecarboxylic acid]	0.14	0.08	9-30 times	10.8	8.9	four times as active	thirty times as active	
0.125 (≈ 0.338 µM)	0.06 (≈ 0.162 µM)	0.016 (≈ 0.0432 µM)	4 (≈ 10.8 µM)	0.25 (≈ 0.675 µM)	0.008 (≈ 0.0216 µM)	0.06 (≈ 0.162 µM)	Cc1cc(-c2c(F)cc3c(=O)c(C(=O)O)cn(C4CC4)c3c2F)cc(C)n1 [C, 1-Cyclopropyl-6,8-difluoro-7-(2,6-dimethyl-4-pyridinyl)-1,4-dihydro-4-oxo-3-quinolinecarboxylic acid]	0.09	0.06	9-30 times	5.7	6.1	four times as active	thirty times as active	maximum concentration [1]: 34 µg/mL; time of maximum concentration [1]: 5.5 h; half-life [1]: 20 h
0.5 (≈ 1.42 µM)	0.03 (≈ 0.0851 µM)	0.03 (≈ 0.0851 µM)	2 (≈ 5.68 µM)	0.5 (≈ 1.42 µM)	0.008 (≈ 0.0227 µM)	0.06 (≈ 0.17 µM)	Cc1cc(-c2cc3c(cc2F)c(=O)c(C(=O)O)cn3C2CC2)cc(C)n1 [Compound A, 1-Cyclopropyl-7-(2,6-dimethyl-4-pyridinyl)-6-fluoro-1,4-dihydro-4-oxo-3-quinolinecarboxylic acid]	0.20	0.08	9-30 times	3.8	3.1	four times as active	thirty times as active	maximum concentration [1]: 13 µg/mL; time of maximum concentration [1]: 7 h; half-life [1]: 13 h
							Cc1cc(-c2c(F)c(Sc3ccccc3)c3c(=O)c(C(=O)O)cn(C4CC4)c3c2F)cc(C)n1 [Example 6(c), 1-cyclopropyl-7-(2,6-dimethyl-4-pyridinyl)-6,8-difluoro-5-(phenylthio)-1,4-dihydro-4-oxo-3-quinolinecarboxylic acid]								MIC (Bacteroides fragilis; B. fragilis, read-out: MIC): 16 µg/mL (≈ 33.4 µM); MIC (Streptococcus pneumoniae; [3]): 2 µg/mL (≈ 4.18 µM); MIC (Micrococcus luteus; M. luteus, read-out: MIC): 16 µg/mL (≈ 33.4 µM); MIC (Staphylococcus aureus; Staph. aureus, read-out: MIC): 1 µg/mL (≈ 2.09 µM); MIC (Streptococcus faecalis; Strep. faecalis, read-out: MIC): 16 µg/mL (≈ 33.4 µM)
							Cc1cc(-c2c(F)cc3c(=O)c(C(=O)O)cn(C4CC4)c3c2SCc2ccccc2)cc(C)n1 [Example 7, 1-cyclopropyl-7-(2,6-dimethyl-4-pyridinyl)-6-fluoro-1,4-dihydro-4-oxo-8-(benzylthio)-3-quinolinecarboxylic acid]								MIC (Bacteroides fragilis; B. fragilis, read-out: MIC): 64 µg/mL (≈ 135 µM); MIC (Escherichia coli; E. coli, read-out: MIC): 4 µg/mL (≈ 8.43 µM); MIC (Streptococcus pneumoniae; [3]): 2 µg/mL (≈ 4.21 µM); MIC (Micrococcus luteus; M. luteus, read-out: MIC): 64 µg/mL (≈ 135 µM); MIC (Staphylococcus aureus; Staph. aureus, read-out: MIC): < 0.125 µg/mL; MIC (Streptococcus faecalis; Strep. faecalis, read-out: MIC): 2 µg/mL (≈ 4.21 µM)
16 (≈ 49.6 µM)	0.25 (≈ 0.776 µM)	2 (≈ 6.2 µM)	32 (≈ 99.3 µM)	8 (≈ 24.8 µM)	0.25 (≈ 0.776 µM)	1 (≈ 3.1 µM)	CCn1cc(C(=O)O)c(=O)c2ccc(-c3cc(C)nc(C)c3)cc21 [P, 7-(2,6-Dimethyl-4-pyridinyl)-1-ethyl-1,4-dihydro-4-oxo-3-quinolinecarboxylic acid, reference compound]	3.8	2.37		17.9	13.5			
2 (≈ 6.04 µM)	0.004 (≈ 0.0121 µM)	0.25 (≈ 0.754 µM)	0.125 (≈ 0.377 µM)	2 (≈ 6.04 µM)	0.25 (≈ 0.754 µM)	0.5 (≈ 1.51 µM)	O=C(O)c1cn(C2CC2)c2cc(N3CCNCC3)c(F)cc2c1=O [Q, 1-Cyclopropyl-6-fluoro-7-(1-piperazinyl)-1,4-dihydro-4-oxo-3-quinolinecarboxylic acid, reference compound]								
2 (≈ 5.88 µM)	0.06 (≈ 0.176 µM)	0.25 (≈ 0.735 µM)	4 (≈ 11.8 µM)	0.5 (≈ 1.47 µM)	0.03 (≈ 0.0881 µM)	0.25 (≈ 0.735 µM)	CCn1cc(C(=O)O)c(=O)c2cc(F)c(-c3cc(C)nc(C)c3)cc21 [R, 7-(2,6-Dimethyl-4-pyridinyl)-1-ethyl-6-fluoro-1,4-dihydro-4-oxo-3-quinolinecarboxylic acid, reference compound]	1.38	0.71		8.24	5.39			
